pEC50: −log10 of the molar value.
Key:
Cannabinoid receptor 1 = Cannabinoid receptor 1 (Homo sapiens, UniProt P21554); test: (§1) cAMP Assay: CHO cells expressing human CB1 or CB2 receptors are seeded 17-24 hours prior to the experiment 50.000 cells per well in a black 96 well plate with flat clear bottom (Corning Costar #3904) in DMEM (Invitrogen No. 31331), 1×HT supplement, with 10% fetal calf serum and incubated at 5% CO2 and 37° C. in a humidified incubator. The growth medium was exchanged with Krebs Ringer Bicarbonate buffer with 1 mM IBMX and incubated at 30° C. for 30 min. Compounds were added to a final assay volume of 100 μl and incubated for 30 min at 30° C. Using the cAMP-Nano-TRF detection kit the assay (Roche Diagnostics) was stopped by the addition of 50 μl lysis reagent (Tris, NaCl, 1.5% Triton X100, 2.5% NP40, 10% NaN3) and 50 μl detection solutions (20 μM mAb Alexa700-cAMP 1:1, and 48 μM Ruthenium-2-AHA-cAMP) and shaken for 2 h at room temperature. The time-resolved energy transfer is measured by a TRF reader (Evotec Technologies GmbH), equipped with a ND:YAG laser as excitation source. The plate is measured twice with the excitation at 355 nm and at the emission with a delay of 100 ns and a gate of 100 ns, total exposure time 10s at 730 (bandwidth 30 nm) or 645 nm (bandwidth 75 nm), respectively.; assay type: functional, cell-based
Cannabinoid receptor 2 = Cannabinoid receptor 2 (Homo sapiens, UniProt P34972); test: as §1; assay type: functional, cell-based
Cannabinoid receptor 2, sequence (P34972 whole entry): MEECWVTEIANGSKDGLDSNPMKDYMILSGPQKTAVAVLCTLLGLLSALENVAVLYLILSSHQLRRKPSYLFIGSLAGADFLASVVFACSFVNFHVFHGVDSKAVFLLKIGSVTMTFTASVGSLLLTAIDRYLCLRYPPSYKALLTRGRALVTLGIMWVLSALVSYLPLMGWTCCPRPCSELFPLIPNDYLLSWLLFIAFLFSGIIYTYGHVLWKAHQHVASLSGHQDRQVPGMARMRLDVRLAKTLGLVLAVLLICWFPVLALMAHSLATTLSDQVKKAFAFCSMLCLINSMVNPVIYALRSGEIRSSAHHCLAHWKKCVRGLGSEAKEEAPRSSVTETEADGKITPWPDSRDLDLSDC

Cannabinoid receptor 1, sequence (P21554 whole entry): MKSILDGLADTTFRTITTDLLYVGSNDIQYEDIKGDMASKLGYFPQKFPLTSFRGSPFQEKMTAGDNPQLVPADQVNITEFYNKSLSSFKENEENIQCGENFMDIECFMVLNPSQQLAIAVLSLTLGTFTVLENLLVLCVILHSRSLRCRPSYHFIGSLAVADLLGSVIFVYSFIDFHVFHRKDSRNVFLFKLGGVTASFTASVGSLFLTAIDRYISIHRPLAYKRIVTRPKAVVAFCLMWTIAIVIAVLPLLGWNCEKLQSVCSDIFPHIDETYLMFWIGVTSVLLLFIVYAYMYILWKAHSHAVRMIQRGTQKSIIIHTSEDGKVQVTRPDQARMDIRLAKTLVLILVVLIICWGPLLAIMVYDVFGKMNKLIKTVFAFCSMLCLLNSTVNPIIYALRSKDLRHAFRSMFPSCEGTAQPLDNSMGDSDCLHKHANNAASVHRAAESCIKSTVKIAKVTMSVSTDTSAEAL

SMILES	pEC50 (Cannabinoid receptor 1)	pEC50 (Cannabinoid receptor 2)
CNC(=O)C(CC1CCC1)NC(=O)c1cnc(N2CC(F)(F)C2)c(OCC2CC2)n1 (centres undefined)	< 5.00	7.29
O=C(NC1(CO)CCCCC1)c1cnc(N2CC(F)(F)C2)c(OCC2CC2)n1	< 5.00	8.74
CC(C)(CCc1ccncc1)NC(=O)c1cnc(C2CC2)c(OCC2CC2)n1		6.55
O=C(NN1CCCCC1)c1cnc(C2CC2)c(OCC2CC2)n1	< 5.00	6.49
CC(C)(O)[C@H](CC1CC1)NC(=O)c1cnc(C2CC2)c(OCC2CC2)n1	< 5.00	6.70
